# Key:
# watergrass, late = experiment: Test F flood (paddy) test; format: in vivo, Echinochloa oryzicola; conditions: 21 d, scale 0-100
# How it was run: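 Pots of sterilized Tama silt loam (35:50:15 sand:silt:clay, 2.6% organic matter) were sown so crop and weeds reached the 2.0–2.5-leaf stage; greenhouse 30/27 °C, 16-h photoperiod. Pots flooded to 3 cm, compound applied into paddy water, depth maintained. Visual rating vs untreated controls after 21 d, 0–100 scale.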
# speedwell = experiment: Test D pre-/postemergence herbicide test; format: in vivo, Veronica persica; conditions: for Plant response rating, Speedwell: Preemergence, scale 0 to 100 (0 no effect, 100 complete control); for Plant response rating: Postemergence, Speedwell, scale 0 to 100
# Text: Seeds of plant species selected from bluegrass (annual bluegrass, Poa annua), blackgrass (Alopecurus myosuroides), canarygrass (littleseed canarygrass, Phalaris minor), chickweed (common chickweed, Stellaria media), galium (catchweed bedstraw, Galium aparine), bromegrass, downy (downy bromegrass, Bromus tectorum), field poppy (Papaver rhoeas), field violet (Viola arvensis), foxtail, green (green foxtail, Setaria viridis), deadnettle (henbit deadnettle, Lamium amplexicaule), ryegrass, Italian (Italian ryegrass, Lolium multiflorum), kochia (Kochia scoparia), lambsquarters (Chenopodium album), oilseed rape (Brassica napus), pigweed (Amaranthus retroflexus), chamomile (scentless chamomile, Matricaria inodora), Russian thistle (Salsola kali), speedwell (bird's-eye speedwell, Veronica persica), barley, spring (spring barley, Hordeum vulgare), wheat, spring (spring wheat, Triticum aestivum), buckwheat, wild (wild buckwheat, Polygonum convolvulus), mustard, wild (wild mustard, Sinapis arvensis), oat, wild (wild oat, Avena fatua), radish, wild (wild radish, Raphanus raphanistrum), […]), barley, winter (winter barley, Hordeum vulgare), and wheat, winter (winter wheat, Triticum aestivum) were planted into a silt loam soil and treated preemergence with test chemicals formulated in a non-phytotoxic solvent mixture which included a surfactant. At the same time, these species were planted in pots containing Redi-Earth® planting medium (Scotts Company, 14111 Scottslawn Road, Marysville, Ohio 43041) comprising spaghnum peat moss, vermiculite, wetting agent and starter nutrients and treated with postemergence applications of the test chemicals formulated in the same manner. Plants ranged in height from 2 to 18 cm (1- to 4-leaf stage). Treated plants and controls were maintained in a controlled growth environment for 7 to 21 days after which time all species were compared to controls and visually evaluated. Plant response ratings, summarized in Table D, are based on a scale of 0 to 100 where 0 is no effect and 100 is complete control. A dash (-) response means no test result.
# surinam grass = experiment: Test C pre-/postemergence herbicide test; format: in vivo, Brachiaria decumbens
# Text: (§1) Seeds of plant species selected from blackgrass (Alopecurus myosuroides), ryegrass, Italian (Italian ryegrass, Lolium multiflorum), wheat (winter wheat, Triticum aestivum), galium (catchweed bedstraw, Galium aparine), corn (Zea mays), crabgrass, large (large crabgrass, Digitaria sanguinalis), foxtail, giant (giant foxtail, Setaria faberii), johnsongrass (Sorghum halepense), lambsquarters (Chenopodium album), morningglory (Ipomoea coccinea), nutsedge, yellow (yellow nutsedge, Cyperus esculentus), pigweed (Amaranthus retroflexus), ragweed (common ragweed, Ambrosia elatior), soybean (Glycine max), barnyardgrass (Echinochloa crus-galli), oilseed rape (Brassica napus), waterhemp (common waterhemp, Amaranthus rudis), kochia (Kochia scoparia), oat, wild (wild oat, Avena fatua), surinam grass (Brachiaria decumbens), foxtail, green (green foxtail, Setaria viridis), goosegrass (Eleusine indica), bromegrass, downy (downy bromegrass, Bromus tectorum), nightshade (eastern black nightshade, Solanum ptycanthum), cocklebur (common cocklebur, Xanthium strumarium), cupgrass, woolly (woolly cupgrass, Eriochloa villosa), bermudagrass (Cynodon dactylon), sunflower, (common oilseed sunflower, Helianthus annuus), Russian thistle (Salsola kali) and velvetleaf (Abutilon theophrasti) were planted into a blend of loam soil and sand and treated preemergence with test chemicals formulated in a non-phytotoxic solvent mixture which included a surfactant. At the same time, plants selected from these crop and weed species and also barley (winter barley, Hordeum vulgare), […]), chickweed (common chickweed, Stellaria media), deadnettle (henbit deadnettle, Lamium amplexicaule), and canarygrass (littleseed canarygrass, Phalaris minor) were planted in pots containing Redi-Earth® planting medium (Scotts Company, 14111 Scottslawn Road, Marysville, Ohio 43041) comprising spaghnum peat moss, vermiculite, wetting agent and starter nutrients and treated with postemergence applications of test chemicals formulated in the same manner. Plants ranged in height from 2 to 18 cm (1- to 4-leaf stage) for postemergence treatments. Treated plants and controls were maintained in a greenhouse for 13 to 15 days, after which time all species were compared to controls and visually evaluated. Plant response ratings, summarized in Table C, are based on a scale of 0 to 100 where 0 is no effect and 100 is complete control. A dash (-) response means no test result.
# nightshade = experiment: Test C pre-/postemergence herbicide test; format: in vivo, Solanum ptycanthum; conditions: Preemergence
# Text: as §1
# cocklebur = experiment: Test C pre-/postemergence herbicide test; format: in vivo, Xanthium strumarium
# Text: as §1
# [1] = Preemergence, 62 g ai/ha, scale 0 to 100
# [2] = Preemergence, 125 g ai/ha, scale 0 to 100 (0 no effect, 100 complete control)
# [3] = Preemergence, 31 g ai/ha, scale 0 to 100 (0 no effect, 100 complete control)
# [4] = Postemergence, 31 g ai/ha, scale 0 (no effect) to 100 (complete control)
# [5] = Postemergence, 62 g ai/ha, scale 0 to 100 (0 no effect, 100 complete control)
# [6] = Postemergence, 125 g ai/ha, scale 0 to 100 (0 no effect, 100 complete control)
# [7] = Postemergence, 250 g ai/ha, scale 0 to 100 (0 no effect, 100 complete control)
# [8] = 125 g ai/ha, scale 0 to 100 (0 no effect, 100 complete control)
# [9] = Postemergence, 16 g ai/ha, scale 0 to 100 (0 no effect, 100 complete control)
# [10] = Preemergence, 16 g ai/ha, scale 0 to 100
compound,measurement,setting,value
CN1CC(c2ccc(F)c(F)c2)C(C(=O)Nc2cccc(F)c2F)C1=O (centres unmarked) [Compound 303],"Plant response rating, Watergrass, Late","watergrass, late; 62 g ai/ha",95
same,"Plant response rating, Watergrass, Late","watergrass, late; 125 g ai/ha",95
same,"Plant response rating, Watergrass, Late","watergrass, late; 250 g ai/ha",100
same,"Plant response rating, Watergrass, Late","watergrass, late; 500 g ai/ha",100
O=C1NCC(c2ccc(F)c(C(F)(F)F)c2)C1C(=O)Nc1cccc(F)c1F (racemic) [Compound 77],"Plant response rating, Speedwell",speedwell; 62 g ai/ha,25
same,"Plant response rating, Speedwell",speedwell; 125 g ai/ha,35
same,"Plant response rating, Speedwell",speedwell; 31 g ai/ha,20
same,"Plant response rating, Speedwell",speedwell; 250 g ai/ha,100
O=C1NC[C@H](c2cccc(C(F)(F)F)c2)[C@H]1C(=O)Nc1cccc(F)c1F [Compound 206],"Plant response rating, Speedwell",speedwell; 62 g ai/ha,25
same,"Plant response rating, Speedwell",speedwell; 125 g ai/ha,65
same,"Plant response rating, Speedwell",speedwell; 31 g ai/ha,0
same,"Plant response rating, Speedwell",speedwell; 250 g ai/ha,90
same,"Plant response rating, Watergrass, Late","watergrass, late; 64 g ai/ha",90
same,"Plant response rating, Watergrass, Late","watergrass, late; 125 g ai/ha",100
same,"Plant response rating, Watergrass, Late","watergrass, late; 250 g ai/ha",100
same,"Plant response rating, Watergrass, Late","watergrass, late; 500 g ai/ha",100
O=C1NCC(c2ccc(C(F)(F)F)cc2)C1C(=O)Nc1cccc(F)c1F (racemic) [Compound 202],Plant response rating,speedwell; 31 g ai/ha,60
same,Plant response rating,speedwell; 62 g ai/ha,75
same,Plant response rating,speedwell; 125 g ai/ha,85
same,Plant response rating,speedwell; 250 g ai/ha,90
same,"Plant response rating, Speedwell",speedwell; 62 g ai/ha,90
same,"Plant response rating, Speedwell",speedwell; 125 g ai/ha,90
same,"Plant response rating, Speedwell",speedwell; 31 g ai/ha,90
same,"Plant response rating, Speedwell",speedwell; 250 g ai/ha,100
O=C1NCC(c2ccc(F)c(F)c2)C1C(=O)Nc1cccc(F)c1F (racemic) [Compound 101],"Plant response rating, Watergrass, Late","watergrass, late; 64 g ai/ha",65
same,"Plant response rating, Watergrass, Late","watergrass, late; 125 g ai/ha",75
same,"Plant response rating, Watergrass, Late","watergrass, late; 250 g ai/ha",85
same,"Plant response rating, Watergrass, Late","watergrass, late; 500 g ai/ha",85
O=C1NCC(c2ccc(Cl)c(Cl)c2)C1C(=O)Nc1ccccc1F (racemic) [Compound 14],"Plant response rating, Surinam Grass",surinam grass; [1],80
same,"Plant response rating, Surinam Grass",surinam grass; [2],95
same,"Plant response rating, Nightshade","nightshade; 62 g ai/ha, scale 0 to 100",0
same,"Plant response rating, Cocklebur",cocklebur; [1],0
same,Cocklebur plant response rating,cocklebur; [3],0
same,"Plant response rating, Cocklebur","cocklebur; Preemergence, 250 g ai/ha, scale 0 to 100 (0 no effect, 100 complete control)",0
O=C1NCC(c2cc(F)c(F)cc2F)C1C(=O)Nc1cccc(F)c1F (centres unmarked) [Compound 50],"Plant response rating, Surinam Grass",surinam grass; [4],5
same,"Plant response rating, Surinam Grass",surinam grass; [5],5
same,"Plant response rating, Surinam Grass",surinam grass; [6],5
same,"Plant response rating, Surinam Grass",surinam grass; [7],15
same,"Plant response rating, Cocklebur",cocklebur; [4],5
same,"Plant response rating, Cocklebur",cocklebur; [5],5
same,"Plant response rating, Cocklebur",cocklebur; [6],5
same,"Plant response rating, Cocklebur",cocklebur; [7],5
same,Plant response rating,speedwell; 16 g ai/ha,0
same,"Plant response rating, Speedwell",speedwell; 62 g ai/ha,0
same,"Plant response rating, Speedwell",speedwell; 125 g ai/ha,0
same,"Plant response rating, Speedwell",speedwell; 16 g ai/ha,0
same,"Plant response rating, Speedwell",speedwell; 31 g ai/ha,0
O=C1NCC(c2ccc(C(F)(F)F)cc2)C1C(=O)Nc1ccccc1F (centres unmarked) [Compound 231],Plant response rating,speedwell; 31 g ai/ha,60
same,Plant response rating,speedwell; 62 g ai/ha,70
same,Plant response rating,speedwell; 125 g ai/ha,75
same,Plant response rating,speedwell; 250 g ai/ha,75
same,"Plant response rating, Speedwell",speedwell; 62 g ai/ha,80
same,"Plant response rating, Speedwell",speedwell; 125 g ai/ha,100
same,"Plant response rating, Speedwell",speedwell; 31 g ai/ha,75
same,"Plant response rating, Speedwell",speedwell; 250 g ai/ha,100
"O=C1NCC(c2ccc(C(F)(F)F)cc2)C1C(=O)Nc1cccc(F)c1F (centres unmarked) [Compound 80, N-(2,3-difluorophenyl)-2-oxo-4-[4-(trifluoromethyl)phenyl]-3-pyrrolidinecarboxamide]",Plant response rating,speedwell; 31 g ai/ha,60
same,Plant response rating,speedwell; 62 g ai/ha,70
same,Plant response rating,speedwell; 125 g ai/ha,70
same,Plant response rating,speedwell; 250 g ai/ha,65
same,"Plant response rating, Speedwell",speedwell; 62 g ai/ha,85
same,"Plant response rating, Speedwell",speedwell; 125 g ai/ha,85
same,"Plant response rating, Speedwell",speedwell; 31 g ai/ha,10
same,"Plant response rating, Speedwell",speedwell; 250 g ai/ha,100
O=C1NCC(c2ccc(F)c(Cl)c2)C1C(=O)Nc1ccccc1F (centres unmarked) [Compound 60],"Plant response rating, Surinam Grass",surinam grass; [4],0
same,"Plant response rating, Surinam Grass",surinam grass; [5],0
same,"Plant response rating, Surinam Grass",surinam grass; [6],0
same,"Plant response rating, Surinam Grass",surinam grass; [1],70
same,"Plant response rating, Surinam Grass",surinam grass; [2],70
same,"Plant response rating, Nightshade","nightshade; 62 g ai/ha, scale 0 to 100",0
same,"Plant response rating, Nightshade",nightshade; [8],0
same,"Plant response rating, Cocklebur",cocklebur; [4],0
same,"Plant response rating, Cocklebur",cocklebur; [5],0
same,"Plant response rating, Cocklebur",cocklebur; [6],0
same,"Plant response rating, Cocklebur",cocklebur; [1],0
same,"Plant response rating, Cocklebur",cocklebur; [2],0
"O=C1NC[C@H](c2cccc(C(F)(F)F)c2)[C@H]1C(=O)Nc1ccccc1F [Compound 204, (3R,4S)—N-(2-fluorophenyl)-2-oxo-4-[3-(trifluoromethyl)phenyl]-3-pyrrolidinecarboxamide]","Plant response rating, Speedwell",speedwell; 62 g ai/ha,10
same,"Plant response rating, Speedwell",speedwell; 125 g ai/ha,10
same,"Plant response rating, Speedwell",speedwell; 31 g ai/ha,0
same,"Plant response rating, Speedwell",speedwell; 250 g ai/ha,70
same,"Plant response rating, Watergrass, Late","watergrass, late; 125 g ai/ha",70
same,"Plant response rating, Watergrass, Late","watergrass, late; 250 g ai/ha",98
same,"Plant response rating, Watergrass, Late","watergrass, late; 500 g ai/ha",98
O=C1NCC(c2ccc(F)c(F)c2)C1C(=O)Nc1ccccc1C(F)(F)F (racemic) [Compound 6],Plant response rating,speedwell; 16 g ai/ha,0
same,Plant response rating,speedwell; 31 g ai/ha,0
same,Plant response rating,speedwell; 62 g ai/ha,0
same,Plant response rating,speedwell; 125 g ai/ha,0
same,Plant response rating,speedwell; 250 g ai/ha,15
same,"Plant response rating, Speedwell",speedwell; 62 g ai/ha,10
same,"Plant response rating, Speedwell",speedwell; 125 g ai/ha,30
same,"Plant response rating, Speedwell",speedwell; 16 g ai/ha,0
same,"Plant response rating, Speedwell",speedwell; 31 g ai/ha,10
same,"Plant response rating, Speedwell",speedwell; 250 g ai/ha,50
O=C1NCC(c2cccc(C(F)F)c2)C1C(=O)Nc1ccccc1F (racemic) [Compound 210],"Plant response rating, Watergrass, Late","watergrass, late; 125 g ai/ha",55
same,"Plant response rating, Watergrass, Late","watergrass, late; 250 g ai/ha",75
same,"Plant response rating, Watergrass, Late","watergrass, late; 500 g ai/ha",90
O=C1NCC(c2cc(F)c(F)c(F)c2)C1C(=O)Nc1cccc(F)c1F (centres unmarked) [Compound 48],"Plant response rating, Surinam Grass",surinam grass; [9],0
same,"Plant response rating, Surinam Grass",surinam grass; [4],5
same,"Plant response rating, Surinam Grass",surinam grass; [5],25
same,"Plant response rating, Surinam Grass",surinam grass; [6],25
same,"Plant response rating, Surinam Grass",surinam grass; [1],75
same,"Plant response rating, Surinam Grass",surinam grass; [2],85
same,"Plant response rating, Surinam Grass",surinam grass; [10],10
same,"Plant response rating, Nightshade","nightshade; 62 g ai/ha, scale 0 to 100",0
same,"Plant response rating, Nightshade",nightshade; [8],0
same,"Plant response rating, Nightshade","nightshade; 16 g ai/ha, scale 0 to 100",0
same,"Plant response rating, Cocklebur",cocklebur; [9],0
same,"Plant response rating, Cocklebur",cocklebur; [4],5
same,"Plant response rating, Cocklebur",cocklebur; [5],10
same,"Plant response rating, Cocklebur",cocklebur; [6],10
same,"Plant response rating, Cocklebur",cocklebur; [1],0
same,"Plant response rating, Cocklebur",cocklebur; [2],5
same,"Plant response rating, Cocklebur",cocklebur; [10],0
same,Cocklebur plant response rating,cocklebur; [3],0

# From patent US10294202B2, “Pyrrolidinones as herbicides” (FMC Corporation, priority 2013, dated 2019)
